Experimental findings from US20240285623A1, “TRPA1 CHANNEL ANTAGONIST COMPOUND FOR USE IN DEGENERATIVE RETINAL DISEASES” (FLONEXT S.R.L., priority 2021, published 2024) are described below.

One experiment concerns 4-hydroxynonenal (4-HNE). The experiment in a line: Assessment of oxidative stress at the retinal level (4-HNE immunofluorescence) in the NalO3-induced mouse model of macular degeneration. The format is in vivo, C57BL/6J male mice. Conditions: for protection of the retina from the NalO3-induced increase of 4-HNE (in words): NalO3 mouse model, eye drops; for reduction of the retinal levels of 4-HNE (immunofluorescence): eye drops 5 μl of 10 mM solution, 60 min before NalO3 (20 mg/kg, retro-orbital vein) then 3 times a day, retina collected day 4, mean±SEM, P<0.01 vs. V2/NalO3. On the procedure: (§1) To create a valid model of macular degeneration, the systemic administration (via the retro-orbital vein) of NalO3 was carried out in C57BL/6J male mice aged 5-8 weeks and weighing 22-25 g supplied by the Charles River company (Milan, Italy). In order to carry out the experiments described below, a total of 36 mice were used. The animals were kept in a temperature and humidity-controlled environment (12-hour dark/light cycle, free access to food and water). The experiments were performed in a temperature-controlled room (20 to 22° C.) between 8:00 and 20:00. At the end of the experiment, the animals were euthanized by inhalation of a mixture of 50% O2/50% CO2 for 1 minute. The NalO3, DMSO, Tween 80 and NaCl 0.9% reagents used in the study were purchased from Merck Life Science SRL (Milan, Italy).
(§2) The mice were administered locally, through eye drops, the compounds indicated above or their vehicle consisting of 4% DMSO, 4% Tween 80 in 0.9% NaCl.
(§3) In particular, a group of 6 mice (used as a control) was administered by instillation, 60 minutes before the injection into the retro-orbital vein (1 ml/kg) of the vehicle (V1) (NaCl, 0.9%) of NalO3 and subsequently 3 times a day, eye drops (5 μl) containing the vehicle (V2) (4% DMSO, 4% Tween 80 in NaCl 0.9%) of the drugs.
(§4) Another 30 mice received, in groups of 6 mice each, 60 minutes before the injection into the retro-orbital vein (1 ml/kg) of NalO3 (1%, 20 mg/kg) and subsequently 3 times a day, eye drops (5 μl) of a 10 mM solution of the above-mentioned compounds FN-005, FN-006, FN-007, FN-008 or their vehicle (V2) (4% DMSO, 4% Tween 80 in 0.9% NaCl) by instillation.
(§5) For each group of mice, the first administration (day 1) of the compound of formula (IV), of the compound of formula (I), of the compound of formula (II) and of the compound of formula (III) or of the vehicle (V2) was performed 60 minutes before the injection of NalO3 or its vehicle (V1) and the second and third administration were performed 6 and 12 hours after the injection of vehicle (V1) or NalO3, respectively. On the two days (day 2 and day 3) following the injection of vehicle (V1) or NalO3, the compounds of formula (IV), (I), (II), and (III) or vehicle (V2) were administered to the various groups of mice at 8:00, 14:00 and 20:00.
(§6) At 09:00 on day 4 after the treatment with vehicle (V1) or NalO3 the mice given the compounds indicated above as FN-005, FN-006, FN-007, FN-008 or their vehicle (V2) were sacrificed (as previously reported) and the eyeballs were enucleated and processed for subsequent analysis of the damage.
The level of oxidative stress was also assessed throughout the thickness of the retina by measuring the immunofluorescence intensity for the reactive carbonyl species, 4-hydroxynonenal (4-HNE), a final indicator of oxidative stress.
Levels of 4-HNE were quantified using a primary antibody (#ab48506, monoclonal mouse [HNEJ-2], 1:40, Abcam, Cambridge, UK) to which a second fluorophore-labelled antibody (Alexa Fluor 594, #A A32742, Thermo Fisher Scientific) binds in the 6 groups of mice treated as described above.
Cell nuclei were visualized using the DAPI organic dye (#ab228549, Abcam, Cambridge, UK).
The data relating to the fluorescence intensity value are presented for each treatment as mean±SEM. *p<0.05 vs V1/V2; § p<0.05 vs NalO3 in FIG. 2B. Statistical analysis using one-way analysis of variance (ANOVA) test and Bonferroni test.

In experiment [1] the test system is RPE layer (retinal pigmented epithelium). Kind of experiment: Immunofluorescence (RPE65) for assessing damage of the retinal pigment epithelium in the NalO3-induced mouse model of macular degeneration. The format is in vivo, C57BL/6J male mice. Conditions: for protection of the retina from NalO3-induced damage of the cells of the RPE layer (in words): NalO3 mouse model, eye drops; for reduction of the NalO3-induced damage on the RPE layer compared to V2 (RPE65 staining intensity): eye drops 5 μl of 10 mM solution, 60 min before NalO3 (20 mg/kg, retro-orbital vein) then 3 times a day, retina collected day 4, mean±SEM, P<0.01 vs. V2/NalO3. Here is the method: as §1, §2, §3, §4, §5, §6
Direct immunofluorescence was used to assess damage to the RPE (retinal pigmented epithelium), which corresponds to the layer of pigmented cells immediately adjacent to the neurosensory retina which nourishes the visual cells of the retina, and is firmly attached to the underlying choroid and the overlying visual retinal cells.
The staining intensity of the RPE layer was quantified using a primary antibody (RPE65, #ab13826, mouse monoclonal, 1:100, Abcam, Cambridge, UK) to which a second fluorophore-labelled antibody (Alexa Fluor 488, #A28175, Thermo Fisher Scientific) binds in the 6 groups of mice treated with V2/V1, V2/NalO3, with the compound of formula (IV) and NalO3 (FN-005/NalO3), with the compound of formula (I) of polycyclic heteroaromatic derivatives and NalO3 (FN-006/NalO3), with the compound of formula (II) and NalO3 (FN-007/NalO3) and with the compound of formula (III) and NalO3 (FN-008/NalO3). Cell nuclei were visualized using the DAPI organic dye (#ab228549, Abcam, Cambridge, UK).
The data relating to the fluorescence intensity value are presented for each treatment as mean±SEM. *p<0.05 vs V1/V2; § p<0.05 vs NalO3 in FIG. 1B. Statistical analysis using one-way analysis of variance (ANOVA) test and Bonferroni test.

For `COCCCOc1cccc([C@H]2NC(=S)NC3=C2C(=O)c2ccccc23)c1` [compound of formula (II)], in the experiment with 4-hydroxynonenal (4-HNE), the “protection of the retina from the NalO3-induced increase of 4-HNE (in words)” value was “protected the retina” and the “reduction of the retinal levels of 4-HNE (immunofluorescence)” value worked out at 50.32±6.30%. For the same molecule, in experiment [1], the “protection of the retina from NalO3-induced damage of the cells of the RPE layer (in words)” value is recorded as “particularly effective in protecting the retina” and the “reduction of the NalO3-induced damage on the RPE layer compared to V2 (RPE65 staining intensity)” value stood at 60.0±12.8%.
For `Cc1cc2[nH]ncc2cc1-c1ccccc1C(F)(F)F` [compound of formula (III)], in that order: “protected the retina”, 62.10±7.55%, “particularly effective in protecting the retina” and 96.8±20.0%.
As for `C[C@H]1[C@H](F)C[C@@H](C(=O)NCc2cc(-c3cnc(C(F)(F)F)nc3)ncc2C(F)(F)F)N1S(=O)(=O)c1ccc(F)cc1` [compound of formula (IV)], in the experiment on 4-hydroxynonenal (4-HNE), the “protection of the retina from the NalO3-induced increase of 4-HNE (in words)” value is on record as “protected the retina” and the “reduction of the retinal levels of 4-HNE (immunofluorescence)” value came out at 64.16±17.51%. Further, in experiment [1], the “protection of the retina from NalO3-induced damage of the cells of the RPE layer (in words)” value is “particularly effective in protecting the retina” and the “reduction of the NalO3-induced damage on the RPE layer compared to V2 (RPE65 staining intensity)” value was 84.5±33%.
